Test results reported in ChEMBL document CHEMBL3400045, “Synthesis and ABCG2 inhibitory evaluation of 5-N-acetylardeemin derivatives” (Bioorg Med Chem, 2015).

How the values were obtained:
Format in all cases: cell-based
[1] = molecular target: T1, Broad substrate specificity ATP-binding cassette transporter ABCG2 (Homo sapiens, UniProt Q9UNQ0); test: (§1) Inhibition of ABCG2 (unknown origin) transfected in Flp-In-293 cells assessed as inhibition of Hoechst 33342 efflux after 90 mins by flow cytometry; conditions: 1.5 h
T1 sequence (Q9UNQ0 whole entry): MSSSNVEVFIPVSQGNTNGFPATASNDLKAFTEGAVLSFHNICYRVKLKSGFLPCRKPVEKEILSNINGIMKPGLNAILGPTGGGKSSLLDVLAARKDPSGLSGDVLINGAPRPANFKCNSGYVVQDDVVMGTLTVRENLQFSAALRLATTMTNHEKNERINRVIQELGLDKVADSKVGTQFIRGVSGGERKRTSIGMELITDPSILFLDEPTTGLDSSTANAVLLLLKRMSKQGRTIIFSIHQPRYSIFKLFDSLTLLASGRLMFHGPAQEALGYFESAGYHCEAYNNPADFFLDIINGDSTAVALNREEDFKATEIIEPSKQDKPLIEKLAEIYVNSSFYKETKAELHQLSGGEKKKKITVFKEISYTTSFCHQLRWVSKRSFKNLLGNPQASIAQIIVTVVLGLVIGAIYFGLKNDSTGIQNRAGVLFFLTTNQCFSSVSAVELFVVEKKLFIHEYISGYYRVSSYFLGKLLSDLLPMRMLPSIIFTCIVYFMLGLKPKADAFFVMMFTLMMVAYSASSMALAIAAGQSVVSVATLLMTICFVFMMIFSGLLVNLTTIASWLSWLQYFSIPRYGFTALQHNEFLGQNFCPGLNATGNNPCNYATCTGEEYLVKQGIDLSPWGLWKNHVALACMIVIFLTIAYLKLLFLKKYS

ABCG2 [2] = molecular target: T2, ABCG2 (Homo sapiens, UniProt Q9UNQ0); test: Inhibition of ABCG2 (unknown origin) transfected in Flp-In-293 cells assessed as inhibition of Hoechst 33342 efflux measured as inhibition ratio after 90 mins by flow cytometry; design: concentration or dose not given beside the values; conditions: Flp-In-293 cells transfected with ABCG2, probe Hoechst 33342
T2 sequence (Q9UNQ0 whole entry): T1 sequence (Q9UNQ0 whole entry)

ABCG2 [3] = molecular target: T2, ABCG2; test: as §1; conditions: Flp-In-293 cells transfected with ABCG2, probe Hoechst 33342

| Compound | inhibition (INH) [1] | inhibition at 1.5 h (ABCG2 [2]) | inhibition at 1.5 h (ABCG2 [3]) |
| --- | --- | --- | --- |
| C=CC(C)(C)[C@@]12C[C@H]3c4nc5cc(Br)ccc5c(=O)n4[C@H](C)C(=O)N3[C@@H]1N(C(C)=O)c1ccccc12 | Active |  |  |
| C=CC(C)(C)[C@@]12C[C@H]3c4nc5ccc(I)cc5c(=O)n4[C@H](C)C(=O)N3[C@@H]1N(C(C)=O)c1ccccc12 | Active | 35.4% |  |
| C=CC(C)(C)[C@@]12C[C@H]3c4nc5ccccc5c(=O)n4[C@H](C)C(=O)N3[C@@H]1N(C(C)=O)c1ccccc12 |  | 21.8% |  |
| C=CC(C)(C)[C@@]12C[C@H]3c4nc5ccc(C#N)cc5c(=O)n4[C@H](C)C(=O)N3[C@@H]1N(C(C)=O)c1ccccc12 | Active |  |  |
| C=CC(C)(C)[C@]12C[C@@H](C(=O)Nc3ccccc3C(=O)OC)N(C(=O)[C@@H](C)NC(=O)OC(C)(C)C)[C@H]1N(C(C)=O)c1ccccc12 |  |  | 27.5% |
| C=CC(C)(C)[C@@]12C[C@H]3c4nc5ccc(Cl)cc5c(=O)n4[C@H](C)C(=O)N3[C@@H]1N(C(C)=O)c1ccccc12 | Active | 66.8% |  |
| C=CC(C)(C)[C@@]12C[C@H]3c4nc5ccccc5c(=O)n4[C@H](C)C(=O)N3[C@@H]1N(C(C)=O)c1ccc(Br)cc12 | Active |  |  |
| C=CC(C)(C)[C@@]12C[C@H]3c4nc5ccc(OC)cc5c(=O)n4[C@H](C)C(=O)N3[C@@H]1N(C(C)=O)c1ccccc12 | Active |  |  |
| C=CC(C)(C)[C@@]12C[C@H]3c4nc5ccccc5c(=O)n4[C@H](C)C(=O)N3[C@@H]1N(C(C)=O)c1ccc(C3CCCCC3)cc12 | Active |  |  |
| C=CC(C)(C)[C@@]12C[C@H]3c4nc5ccccc5c(=O)n4[C@H](C)C(=O)N3[C@@H]1N(C(C)=O)c1ccc(-c3ccc(C)cc3)cc12 | Active |  |  |
| C=CC(C)(C)[C@@]12C[C@H]3c4nc5ccccc5c(=O)n4[C@H](C)C(=O)N3[C@@H]1N(C(C)=O)c1ccc(-c3ccc(OC)cc3)cc12 | Active |  |  |
| C=CC(C)(C)[C@@]12C[C@H]3c4nc5ccc(Br)cc5c(=O)n4[C@H](C)C(=O)N3[C@@H]1N(C(C)=O)c1ccccc12 | Active | 64.5% |  |
| C=CC(C)(C)[C@@]12C[C@H]3c4nc5ccccc5c(=O)n4[C@H](C)C(=O)N3[C@@H]1N(C(C)=O)c1ccc(-c3ccc(-c4ccccc4)cc3)cc12 | Active |  |  |
| C=CC(C)(C)[C@@]12C[C@H]3c4nc5ccc(-c6ccccc6)cc5c(=O)n4[C@H](C)C(=O)N3[C@@H]1N(C(C)=O)c1ccccc12 | Active |  |  |
| C=CC(C)(C)[C@@]12C[C@H]3c4nc5ccccc5c(=O)n4[C@H](C)C(=O)N3[C@@H]1N(C(C)=O)c1ccc(-c3ccccc3)cc12 | Active |  |  |
| C=CC(C)(C)[C@@]12C[C@H]3c4nc5ccccc5c(=O)n4[C@H](C)C(=O)N3[C@@H]1N(C(C)=O)c1ccc(-c3ccc(C#N)cc3)cc12 | Active |  |  |
| C=CC(C)(C)[C@@]12C[C@H]3c4nc5ccc(F)cc5c(=O)n4[C@H](C)C(=O)N3[C@@H]1N(C(C)=O)c1ccccc12 | Active | 34.6% |  |
